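Growth conditions: 96-well plates. Treatment: test compound, 48 hours, 5 concentrations. Analysis: linear interpolation between bracketing concentrations; unreached endpoints set to highest concentration. GI50 = concentration required for 50% inhibition of growth. TGI: total growth inhibition.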
What was measured:
Experiment in all cases: NCI tumour cell line growth inhibition, 48 h
[1] = test system: OVCAR-4 ovarian
[2] = test system: NCI-H460 lung
[3] = test system: SN12C renal
[4] = test system: SR leukemia
[5] = test system: MDA-MB-231 breast
[6] = test system: U251 CNS
[7] = test system: DU-145 prostate
[8] = test system: CCRF-CEM leukemia
[9] = test system: NCI-H522 lung

| Compound | TGI [1] [µM] | TGI [2] [µM] | TGI [3] [µM] | TGI [4] [µM] | TGI [5] [µM] | TGI [6] [µM] | TGI [7] [µM] | TGI [8] [µM] | TGI [9] [µM] | GI50 [1] [µM] | GI50 [9] [µM] | GI50 [2] [µM] | GI50 [3] [µM] | GI50 [4] [µM] | GI50 [5] [µM] | GI50 [6] [µM] | GI50 [7] [µM] | GI50 [8] [µM] |
| --- | --- | --- | --- | --- | --- | --- | --- | --- | --- | --- | --- | --- | --- | --- | --- | --- | --- | --- |
| Cc1nc(-c2ccc([N+](=O)[O-])cc2)cn2c1nc1ccccc12 | > 100 | > 100 | > 100 | > 100 | > 100 | > 100 | > 100 | > 100 | – | – | – | – | – | – | – | – | – | – |
| COCOC1/C=C/CCCCC2=C(C)C=C(C1)O2 (configuration not stated) | > 100 | > 100 | > 100 | > 100 | > 100 | > 100 | > 100 | > 100 | > 100 | – | – | – | – | – | – | – | – | – |
| Cc1c(F)c(N)c2c(=O)cc(-c3ccc(NC(=O)CN(C)C)c(F)c3)oc2c1F | > 92.5 | > 100 | > 100 | 61 | > 83.7 | > 81.1 | > 100 | > 76.6 | > 100 | – | – | – | – | – | – | – | – | – |
| Cc1c(-c2nc3ccccc3[nH]2)c(=O)n(-c2ccccc2)n1C | > 100 | > 100 | > 100 | – | > 100 | > 100 | > 100 | > 100 | > 100 | – | – | – | – | – | – | – | – | – |
| O=C(/C=C/c1ccc(O)c([N+](=O)[O-])c1)CC(=O)/C=C/c1ccc(O)c([N+](=O)[O-])c1 | > 100 | > 100 | > 100 | – | 68 | 55.3 | > 100 | > 100 | > 100 | – | – | – | – | – | – | – | – | – |
| Cc1ccc(-c2c(C#N)c(-c3ccccc3)n(NS(=O)(=O)c3ccccc3)c(=O)c2C#N)cc1 | > 100 | > 100 | > 100 | – | > 100 | > 100 | – | > 100 | > 100 | – | – | – | – | – | – | – | – | – |
| Cc1nnc(Nc2ccccc2)o1 | > 100 | – | > 100 | > 100 | – | > 100 | > 100 | > 100 | > 100 | – | – | – | – | – | – | – | – | – |
| O=C(O)c1c2c(cc3c1CC1(Cc4ccccc4C1)C3)CCC2 | > 100 | > 100 | > 100 | > 100 | > 100 | > 100 | > 100 | 66.7 | > 100 | – | – | – | – | – | – | – | – | – |
| COc1ccc(-n2c(=O)c3[nH]cnc3n(-c3ccc(OC)cc3)c2=S)cc1 | > 100 | > 100 | > 100 | > 100 | > 100 | > 100 | > 100 | > 100 | > 100 | – | – | – | – | – | – | – | – | – |
| CCCc1cc(=O)c2c(C)c3[nH]c4ccc(Cl)cc4c3c(C)c2[nH]1 | 3.43 | 3.79 | 5.31 | 4.93 | 3.97 | 3.65 | 18.9 | 5.83 | 4.51 | – | – | – | – | – | – | – | – | – |
| NCC1CCN(c2nc3ccccc3c3c2CCCC3)CC1 | 23.2 | 17.6 | 22.4 | – | 17.2 | 16.2 | 25.9 | 14.2 | 19.8 | – | – | – | – | – | – | – | – | – |
| CN(C)CCCOC(=O)C(c1ccccc1)C1(O)CCSCC1 (configuration not stated) | > 100 | > 100 | > 100 | > 100 | > 100 | > 100 | > 100 | > 100 | > 100 | – | – | – | – | – | – | – | – | – |
| CC(C)OP(=O)(OC(C)C)c1c(Nc2ccccc2)n[nH]c1N | > 100 | > 100 | – | > 100 | > 100 | > 100 | > 100 | > 100 | > 100 | – | – | – | – | – | – | – | – | – |
| COc1cccc(-c2cc(=O)c3ccccc3o2)c1N | > 100 | > 100 | > 100 | > 100 | > 100 | > 100 | > 100 | > 100 | > 100 | – | – | – | – | – | – | – | – | – |
| CN1C(=O)N(c2ccccc2)C2(CCN(CC3COc4ccccc4O3)CC2)C1=O (configuration not stated) | > 100 | > 100 | > 100 | > 100 | > 100 | > 100 | > 100 | > 100 | > 100 | – | – | – | – | – | – | – | – | – |
| Cc1nc2c(sc(=S)n2-c2ccccc2)c2nc3ncccc3n12 | – | > 100 | > 100 | > 100 | > 100 | > 100 | > 100 | > 100 | > 100 | – | – | – | – | – | – | – | – | – |
| COc1ccc(C2CC(c3c(O)ccc4ccccc34)=NN2c2ccc([N+](=O)[O-])cc2[N+](=O)[O-])cc1OC (configuration not stated) | > 100 | > 100 | > 100 | – | > 68.8 | > 100 | > 100 | > 50.3 | > 42.9 | – | – | – | – | – | – | – | – | – |
| COc1ccc2[nH]c(O)c(/C=c3/cc4c(c(-c5cc(OC)c(OC)c(OC)c5)n3)=Nc3ccccc3-4)c2c1 | > 100 | > 100 | > 100 | 8.79 | 36.6 | > 100 | > 100 | 12.4 | > 100 | 4.41 | 5.03 | 4.07 | 61.2 | 1.59 | 0.982 | 3.53 | 88.2 | 1.41 |
| CCOP(=O)(OCC)/C(C#N)=C/c1cnc(-c2ccccc2)[nH]1 | > 100 | > 100 | > 100 | > 100 | > 100 | > 100 | > 100 | > 100 | > 100 | – | – | – | – | – | – | – | – | – |
| CC(C)(C)c1ccc2c(c1)CNCCNCc1cc(C(C)(C)C)ccc1OCC1(CO2)COc2ccc(C(C)(C)C)cc2CNCCNCc2cc(C(C)(C)C)ccc2OC1 | 2.93 | 0.609 | – | – | 0.623 | 0.479 | 3.15 | 0.68 | 0.421 | – | – | – | – | – | – | – | – | – |
| C=C(C)C12CC(COC(=O)c3ccccc3)C34OC5(OC1C3C1OC1(CO)C(O)C1(O)C(OC(=O)c3ccccc3)C(C)C(C(C)CCCCCCC5O)C14)O2 (configuration not stated) | > 100 | > 100 | > 100 | > 31.6 | > 100 | > 74.6 | > 100 | > 100 | > 100 | – | – | – | – | – | – | – | – | – |
| COc1ccc(-c2cc(-c3ccco3)c(C#N)c(=S)n2C2OC(COC(C)=O)C(OC(C)=O)C(OC(C)=O)C2OC(C)=O)cc1 (configuration not stated) | 10 | 52 | 24 | – | 16.1 | 17.8 | 20.3 | – | 18 | – | – | – | – | – | – | – | – | – |
